# System: modified version of the GPR119 receptor (94% identity to human receptor)
# Assay: cAMP production assay (LANCE cAMP kit, TR-FRET) in HEK-293 cells
# Assay type: cell-based
# Conditions: for cAMP production in HEK-293 cells: HEK-293 cells stably expressing modified GPR119, test compounds 0.2 nM to 10 μM, one-hour incubation; for Fold over baseline: increase in cAMP relative to basal levels, agonist activity if 1.5-fold or greater
# Method: The assay utilized HEK-293 cells that stably express a modified version of the GPR119 receptor (94% identity to human receptor), under the control of a CMV promoter containing a tet-on element for tetracycline-inducible expression. GPR119 agonist-induced cyclic AMP (cAMP) production was measured in this cell line using the LANCE cAMP kit (Perkin Elmer, Waltham, Mass.). To generate a working stock of cells for the assay, cells were treated overnight with 1 μg/mL doxycycline at 37° C. in the presence of 5% CO2 to induce receptor expression. Cells were then harvested by enzymatic dissociation with 0.05% trypsin, resuspended in freezing medium (DMEM growth medium with 10% each of fetal bovine serum and DMSO), aliquoted and frozen at −80° C. On the day of the assay, frozen cells were thawed, washed 1× in PBS and resuspended in Hank's buffered salt solution (HBSS) containing 5 mM HEPES, 0.1% BSA and Alexa Fluor 647-conjugated anti-cAMP antibody (diluted 1:100). The cell suspension was then transferred to a Proxiplate Plus white 384-well assay plate (Perkin-Elmer) at 2000 cells/well. Test compounds at final concentrations ranging from 0.2 nM to 10 μM were added to the assay plate, followed by a one-hour incubation at ambient temperature (volume=10 μL/well). DMSO concentration was held constant at 0.5%. After incubation with test compounds, 10 μL, of a detergent buffer containing a biotinylated cAMP/Europium-conjugated streptavidin complex (Europium-labeled cAMP tracer) were added to each well on the assay plate, followed by a 2-hour incubation at ambient temperature. During this incubation cAMP released from lysed cells competes with the Europium-labeled cAMP tracer for binding to the Alexa Fluor 647-conjugated antibody. […] Cellular cAMP levels were then determined by interpolation of raw signal data using a cAMP standard curve. Compounds were determined to have agonist activity if they stimulated a 1.5-fold or greater increase in cAMP relative to basal levels.
SMILES,cAMP production in HEK-293 cells,Fold over baseline
"CS(=O)(=O)c1ccc(N[C@H]2CCN(C3CCN(c4nc(-c5ccccc5)ns4)CC3)C2=O)c(F)c1 [Example 24, (S)-3-(2-fluoro-4-(methylsulfonyl)phenylamino)-1-(1-(3-phenyl-1,2,4-thiadiazol-5-yl)piperidin-4-yl)pyrrolidin-2-one]",9.7 nmol,2.6
"CS(=O)(=O)c1ccc(N[C@H]2CCN(C3CCN(c4nc([C@H](O)CO)ns4)CC3)C2=O)c(F)c1 [Example 25, (S)-1-(1-(3-((S)-1,2-dihydroxyethyl)-1,2,4-thiadiazol-5-yl)piperidin-4-yl)-3-(2-fluoro-4-(methylsulfonyl)phenylamino)pyrrolidin-2-one]",8.3 nmol,2.1
"CC(C)c1nsc(N2CCC(N3CC[C@H](N(C)c4cc(F)c(S(C)(=O)=O)cc4F)C3=O)CC2)n1 [Example 26, (S)-3-((2,5-Difluoro-4-(methylsulfonyl)phenyl)(methyl)amino)-1-(1-(3-isopropyl-1,2,4-thiadiazol-5-yl)piperidin-4-yl)pyrrolidin-2-one]",17.2 nmol,3.9
"CC(C)c1nsc(N2CCC(N3CCC[C@H](Nc4ccc(S(C)(=O)=O)cc4F)C3=O)CC2)n1 [Example 27, (S)-3-(2-fluoro-4-(methylsulfonyl)phenylamino)-1′-(3-isopropyl-1,2,4-thiadiazol-5-yl)-[1,4′-bipiperidin]-2-one]",17.5 nmol,3.0
"CC(C)Cc1nsc(N2CCC(N3CCC[C@H](Nc4ccc(S(C)(=O)=O)cc4F)C3=O)CC2)n1 [Example 28, (S)-3-(2-fluoro-4-(methylsulfonyl)phenylamino)-1′-(3-isobutyl-1,2,4-thiadiazol-5-yl)-[1,4′-bipiperidin]-2-one]",11.6 nmol,2.3
"CS(=O)(=O)c1ccc(N[C@H]2CCCN(C3CCN(c4nc(-c5ccccc5)ns4)CC3)C2=O)c(F)c1 [Example 29, (S)-3-(2-fluoro-4-(methylsulfonyl)phenylamino)-1′-(3-phenyl-1,2,4-thiadiazol-5-yl)-[1,4′-bipiperidin]-2-one]",7.3 nmol,2.2
"CC(C)(C)c1nsc(N2CCC(N3CCC[C@H](Nc4ccc(S(C)(=O)=O)cc4F)C3=O)CC2)n1 [Example 30, (S)-1′-(3-tert-butyl-1,2,4-thiadiazol-5-yl)-3-(2-fluoro-4-(methylsulfonyl)phenylamino)-[1,4′-bipiperidin]-2-one]",13.9 nmol,2.8
CC(C)(C)c1nsc(N2CCC(N3CCC[C@H](Nc4c(F)cc(S(C)(=O)=O)cc4F)C3=O)CC2)n1 [Example 31],7.6 nmol,1.9
"CSc1ccc(OC2CCN(C3CCN(c4nc(C(C)C)ns4)CC3)C2=O)cc1 (stereo not shown) [Example 32, 1-(1-(3-Isopropyl-1,2,4-thiadiazol-5-yl)piperidin-4-yl)-3-(4-(methylthio)phenoxy)pyrrolidin-2-one]",17.8 nmol,2.7
"CC(C)c1nsc(N2CCC(N3CCC(Oc4ccc(Br)cc4F)C3=O)CC2)n1 (stereo not shown) [Example 33, 3-(4-bromo-2-fluorophenoxy)-1-(1-(3-isopropyl-1,2,4-thiadiazol-5-yl)piperidin-4-yl)pyrrolidin-2-one]",16.9 nmol,2.7
"CC(C)(C)c1nsc(N2CCC(N3CC[C@H](Oc4cc(F)c(S(C)(=O)=O)cc4F)C3=O)CC2)n1 [Example 34, (S)-1-(1-(3-tert-butyl-1,2,4-thiadiazol-5-yl)piperidin-4-yl)-3-(2,5-difluoro-4-(methylsulfonyl)phenoxy)pyrrolidin-2-one]",29.2 nmol,4.5
"CC(C)(C)c1nsc(N2CCC(N3CC[C@H](Oc4ccc(S(C)(=O)=O)cc4F)C3=O)CC2)n1 [Example 35, (S)-1-(1-(3-tert-butyl-1,2,4-thiadiazol-5-yl)piperidin-4-yl)-3-(2-fluoro-4-(methylsulfonyl)phenoxy)pyrrolidin-2-one]",26.1 nmol,3.7
"CC(C)(C)c1nsc(N2CCC(N3CC[C@H](Oc4c(F)cc(S(C)(=O)=O)cc4F)C3=O)CC2)n1 [Example 36, (S)-1-(1-(3-tert-butyl-1,2,4-thiadiazol-5-yl)piperidin-4-yl)-3-(2,6-difluoro-4-(methylsulfonyl)phenoxy) pyrrolidin-2-one]",23.2 nmol,4.1
"CC(C)(C)c1nsc(N2CCC(N3CC[C@H](Nc4ccc(S(C)(=O)=O)cc4F)C3=O)CC2)n1 [Example 37, (S)-1-(1-(3-tert-butyl-1,2,4-thiadiazol-5-yl)piperidin-4-yl)-3-(2-fluoro-4-(methylsulfonyl)phenyl-amino)pyrrolidin-2-one]",20.9 nmol,3.2
"COC(C)(C)c1nsc(N2CCC(N3CC[C@H](Oc4ccc(S(C)(=O)=O)cc4F)C3=O)CC2)n1 [Example 38, (S)-3-(2-fluoro-4-(methylsulfonyl)phenoxy)-1-(1-(3-(2-methoxypropan-2-yl)-1,2,4-thiadiazol-5-yl)piperidin-4-yl)pyrrolidin-2-one]",42.1 nmol,6.6
"COC(C)(C)c1nsc(N2CCC(N3CC[C@H](Oc4cc(F)c(S(C)(=O)=O)cc4F)C3=O)CC2)n1 [Example 39, (S)-3-(2,5-difluoro-4-(methylsulfonyl)phenoxy)-1-(1-(3-(2-methoxypropan-2-yl)-1,2,4-thiadiazol-5-yl)piperidin-4-yl)pyrrolidin-2-one]",22.4 nmol,3.7
"COC(C)(C)c1nsc(N2CCC(N3CC[C@H](Oc4c(F)cc(S(C)(=O)=O)cc4F)C3=O)CC2)n1 [Example 40, (S)-3-(2,6-difluoro-4-(methylsulfonyl)phenoxy)-1-(1-(3-(2-methoxypropan-2-yl)-1,2,4-thiadiazol-5-yl)piperidin-4-yl)pyrrolidin-2-one]",21.1 nmol,3.9
"COC(C)(C)c1nsc(N2CCC(N3CC[C@H](Nc4ccc(S(C)(=O)=O)cc4F)C3=O)CC2)n1 [Example 41, (S)-3-(2-fluoro-4-(methylsulfonyl)phenyl-amino)-1-(1-(3-(2-methoxypropan-2-yl)-1,2,4-thiadiazol-5-yl)piperidin-4-yl)pyrrolidin-2-one]",8.1 nmol,2.0
"CS(=O)(=O)c1ccc(O[C@H]2CCN(C3CCN(c4nc(-n5cccn5)ns4)CC3)C2=O)c(F)c1 [Example 42, (S)-1-(1-(3-(1H-pyrazol-1-yl)-1,2,4-thiadiazol-5-yl)piperidin-4-yl)-3-(2-fluoro-4-(methylsulfonyl)phenoxy)pyrrolidin-2-one]",12.0 nmol,2.5
"Cc1nnc(-c2ccc(O[C@H]3CCN(C4CCN(c5nc(C(C)C)ns5)CC4)C3=O)c(F)c2)o1 [Example 43, (S)-3-(2-fluoro-4-(5-methyl-1,3,4-oxadiazol-2-yl)phenoxy)-1-(1-(3-isopropyl-1,2,4-thiadiazol-5-yl)piperidin-4-yl)pyrrolidin-2-one]",29.4 nmol,7.4
